Experiments:
C. albicans = test: Minimum fungicidal concentration of iodopovidone; type: cell-based
E. Coli = test: Minimum bactericidal concentration of iodopovidone; type: cell-based

What does the source list for iodopovidone?
minimum fungicidal concentration (C. albicans): 1000 µM; minimum bactericidal concentration (E. Coli): 2000 µM
